In US10206907B2, “Compounds useful for the treatment of degenerative and inflammatory diseases” (GALAPAGOS NV, priority 2008, dated 2019):

Columns and labels:
[1] = molecular target: Recombinant human JAK2 catalytic domain (Homo sapiens (Human), UniProt O60674); test: JAK2 inhibition assay; type: biochemical; conditions: semi-quantitative score
In short: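 Activity was taken as vehicle cpm minus cpm with 10 μM staurosporine, and inhibition was expressed on that scale. Incubation was 90 min at 30 °C, followed by acid quench, phosphoric acid washes and Microscint counting. Compounds were tested as dose series to obtain IC50.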

[2] = Microsomal stability, human liver microsomes; type: in vitro ADME; conditions: percentage of compound remaining after 60 minutes, 3 μM compound
Protocol: (§1) 40 μL of deionised water was added to a well of a polypropylene Matrix 2D barcode labelled storage tube (Thermo Scientific) and pre-incubated at 37° C.
(§2) A co-factor containing MgCl2, glucose-6-phosphate and NADP+ was prepared in deionised water and placed on ice before use.
(§3) A final working solution containing liver microsomes (Xenotech of a species of interest (human, mouse, rat, dog), previously described G6PDH and co-factors was prepared and this mix was incubated for no longer than 20 minutes at room temperature.
(§4) 30 μL of the pre-heated compound dilution was added to 40 μL of pre-heated water in the Matrix tubes and 30 μL of the microsomal mix was added.
(§5) To measure percentage remaining of compound at time zero MeOH or ACN was added (1:1) to the well before adding the microsomal mix.
(§6) The samples which were not stopped are incubated at 37° C., 300 rpm and after 1 hour of incubation the reaction was stopped with MeOH or ACN (1:1).
(§7) After stopping the reaction the samples were mixed and placed on ice for 30 min to precipitate the proteins.
(§8) The samples were analyzed on LCMS with a flow rate of 1 mL/min. Solvent A was 15 mM ammonia and solvent B was methanol or acetonitrile, depending on the stop solution used. […] The percentage remaining after 1 hour incubation was calculated from time 0 and was calculated as the percentage remaining.
(§9) The data on microsomal stability are expressed as a percentage of the total amount of compound remaining after 60 minutes.

MMP13 in SW1353 cells = test: OSM/IL-1β signaling assay (MMP13 levels in SW1353 cells); type: cell-based; conditions: Homo sapiens; SW1353 cells, OSM and IL-1β triggered, MMP13 levels 48 hours after triggering; read-out: MMP13 EC50;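 further: secreted MMP13 captured by antibody, activated with APMA and its activity read by fluorescence, inhibition scaled between vehicle-treated triggered wells (0%) and untriggered wells (100%)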
[3] = Microsomal stability, rat liver microsomes; type: in vitro ADME; conditions: percentage of compound remaining after 60 minutes, 3 μM compound
Protocol: as §1, §2, §3, §4, §5, §6, §7, §8, §9

[4] = molecular target: Recombinant human JAK1 catalytic domain (Homo sapiens (Human), UniProt P23458); test: JAK1 inhibition assay; type: biochemical; conditions: semi-quantitative score
In short: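 IC50 values come from dose-response series, with each point expressed as percent inhibition of cpm. Vehicle sets full activity and 10 μM staurosporine sets background. Incorporated radioactivity counted by scintillation after washing with 75 mM phosphoric acid.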

[5] = tested on: JAK-STAT signalling in HeLa cells; test: JAK-STAT signalling assay (OSM-triggered pSTAT1(2)-luciferase reporter in HeLa cells); type: cell-based; conditions: Homo sapiens; HeLa cells, OSM-triggered pSTAT1(2)-luciferase reporter; read-out: STAT signalling EC50
In short: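 Read-out is oncostatin M–driven pSTAT1(2)-luciferase activity, corrected by co-transfected LacZ β-galactosidase, in transiently transfected HeLa cells cultured overnight at 37 °C, 10% CO2. Inhibition percentages against positive and negative controls were plotted across doses to derive EC50.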

Recombinant human JAK2 catalytic domain, sequence (O60674 808-1132): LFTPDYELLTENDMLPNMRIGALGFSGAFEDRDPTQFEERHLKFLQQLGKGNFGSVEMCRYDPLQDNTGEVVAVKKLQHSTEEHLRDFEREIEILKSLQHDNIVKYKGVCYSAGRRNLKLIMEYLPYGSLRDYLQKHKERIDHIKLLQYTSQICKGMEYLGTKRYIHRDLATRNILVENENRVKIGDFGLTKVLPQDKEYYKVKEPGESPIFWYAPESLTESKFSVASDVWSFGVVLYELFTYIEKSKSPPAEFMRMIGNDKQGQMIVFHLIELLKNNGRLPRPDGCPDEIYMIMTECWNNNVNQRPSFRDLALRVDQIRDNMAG
Recombinant human JAK1 catalytic domain, sequence (P23458 850-1154): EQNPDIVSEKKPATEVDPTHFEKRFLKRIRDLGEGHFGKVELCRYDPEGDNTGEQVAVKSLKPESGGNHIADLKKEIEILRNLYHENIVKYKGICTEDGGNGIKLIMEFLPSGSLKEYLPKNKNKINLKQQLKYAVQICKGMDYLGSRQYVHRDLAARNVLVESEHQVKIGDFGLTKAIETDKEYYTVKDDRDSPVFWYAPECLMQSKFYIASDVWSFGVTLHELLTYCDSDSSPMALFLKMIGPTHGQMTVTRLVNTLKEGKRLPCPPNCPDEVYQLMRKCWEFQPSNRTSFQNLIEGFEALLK

SMILES	IC50 [1]	Microsomal Stability Human (%) [2]	EC50 (MMP13 in SW1353 cells)	Microsomal Stability Rat (%) [3]	IC50 [4]	EC50 [5]
O=C(Cc1ccccc1)Nc1ccc(-c2cccc3nc(NC(=O)C4CC4)nn23)cc1 [Compound 23, N-(5-(4-(2-phenylacetamido)phenyl)-[1,2,4]triazolo[1,5-a]pyridin-2-yl)cyclopropanecarboxamide]	101 to 500 nM	* (* 0-25)	> 1000 nM	** (** 26-50)	< 100 nM	> 1000 nM
O=C(Nc1nc2cccc(-c3ccc(OCCOc4ccc(F)cc4)cc3)n2n1)C1CC1 [Compound 115, N-(5-(4-(2-(4-fluorophenoxy)ethoxy)phenyl)-[1,2,4]triazolo[1,5-a]pyridin-2-yl)cyclopropanecarboxamide]	101 to 500 nM	*** (*** 51-75)	> 1000 nM	** (** 26-50)	< 100 nM	> 1000 nM
N#CC1(C(=O)Nc2ccc(-c3cccc4nc(NC(=O)C5CC5)nn34)cc2)CC1 [Compound 177, 1-cyano-N-(4-(2-(cyclopropanecarboxamido)-[1,2,4]triazolo[1,5-a]pyridin-5-yl)phenyl)cyclopropanecarbox-amide]		**** (**** 76-100)	> 1000 nM	**** (**** 76-100)	< 100 nM	> 1000 nM
Cn1cc(-c2ccc(COc3ccc(-c4cccc5nc(NC(=O)C6CC6)nn45)cc3)cn2)cn1 [Compound 178]		* (* 0-25)	> 1000 nM	** (** 26-50)	< 100 nM	> 1000 nM
O=C(Nc1nc2cccc(-c3ccc(NCc4cccnc4)cc3)n2n1)C1CC1 [Compound 182, N-(5-(4-(pyridin-3-ylmethylamino)phenyl)-[1,2,4]triazolo[1,5-a]pyridin-2-yl)cyclopropanecarboxamide]		* (* 0-25)	> 1000 nM	* (* 0-25)	< 100 nM	> 1000 nM
COC(=O)c1ccc(COc2ccc(-c3cccc4nc(NC(=O)C5CC5)nn34)cc2)nc1 [Compound 190]		* (* 0-25)	> 1000 nM	* (* 0-25)	< 100 nM	> 1000 nM
O=C(Nc1nc2cccc(-c3ccc(OCc4ccc[n+]([O-])c4)cc3)n2n1)C1CC1 [Compound 196, Cyclopropanecarboxylic acid {5-[4-(1-hydroxy-pyridin-3-ylmethoxy)-phenyl]-[1,2,4]triazolo[1,5-a]pyridin-2-yl}-amide]	101 to 500 nM	**** (**** 76-100)	> 1000 nM	**** (**** 76-100)	< 100 nM	> 1000 nM
O=C(Nc1nc2cccc(-c3ccc(OCc4ccc(Cl)nc4)cc3)n2n1)C1CC1 [Compound 198, Cyclopropanecarboxylic acid {5-[4-(6-chloro-pyridin-3-ylmethoxy)-phenyl]-[1,2,4]triazolo[1,5-a]pyridin-2-yl}-amide]	< 100 nM	*** (*** 51-75)	> 1000 nM	*** (*** 51-75)	< 100 nM	101 to 500 nM
CC(=O)N(Cc1cccnc1)c1ccc(-c2cccc3nc(NC(=O)C4CC4)nn23)cc1 [Compound 202, Cyclopropanecarboxylic acid {5-[4-(acetyl-pyridin-3-ylmethyl-amino)-phenyl]-[1,2,4]triazolo[1,5-a]pyridin-2-yl}-amide]	< 100 nM	* (* 0-25)	> 1000 nM	* (* 0-25)	< 100 nM	> 1000 nM
N#CCc1ccc(NCc2ccc(-c3cccc4nc(NC(=O)C5CC5)nn34)cc2)cc1 [Compound 224]	< 100 nM	* (* 0-25)	> 1000 nM	* (* 0-25)	< 100 nM	101 to 500 nM

Results, then the compound that gave them:

IC50 [1]	Microsomal Stability Human (%) [2]	EC50 (MMP13 in SW1353 cells)	Microsomal Stability Rat (%) [3]	IC50 [4]	EC50 [5]	SMILES
101 to 500 nM	** (** 26-50)	> 1000 nM	** (** 26-50)	< 100 nM	> 1000 nM	O=C(Nc1nc2cccc(-c3ccc(-c4ccccc4)cc3)n2n1)C1CC1 [Compound 7, N-(5-(biphenyl-4-yl)-[1,2,4]triazolo[1,5-a]pyridin-2-yl)cyclopropanecarboxamide]
101 to 500 nM	*** (*** 51-75)	> 1000 nM	**** (**** 76-100)	< 100 nM	> 1000 nM	O=C(Nc1ccc(-c2cccc3nc(NC(=O)C4CC4)nn23)cc1)c1ccccc1 [Compound 21, N-(4-(2-(cyclopropanecarboxamido)-[1,2,4]triazolo[1,5-a]pyridin-5-yl)phenyl)benzamide]
101 to 500 nM	* (* 0-25)	501 to 1000 nM	* (* 0-25)	< 100 nM	101 to 500 nM	Cc1noc(C)c1CCOc1ccc(-c2cccc3nc(NC(=O)C4CC4)nn23)cc1 [Compound 201, Cyclopropanecarboxylic acid (5-{4-[2-(3,5-dimethyl-isoxazol-4-yl)-ethoxy]-phenyl}-[1,2,4]triazolo[1,5-a]pyridin-2-yl)-amide]
< 100 nM	* (* 0-25)	501 to 1000 nM	* (* 0-25)	< 100 nM	501 to 1000 nM	O=C(Nc1nc2cccc(-c3ccc(CCc4ccccn4)cc3)n2n1)C1CC1 [Compound 211, Cyclopropanecarboxylic Acid {5-[4-(2-pyridin-2-yl-ethyl)-phenyl]-[1,2,4]triazolo[1,5-a]pyridin-2-yl}-amide]
< 100 nM	*** (*** 51-75)	1 to 500 nM	** (** 26-50)	< 100 nM	101 to 500 nM	O=C(Nc1nc2cccc(-c3ccc(CNc4ccc(Cl)cc4F)cc3)n2n1)C1CC1 [Compound 212, Cyclopropanecarboxylic acid (5-{4-[(4-chloro-2-fluoro-phenylamino)-methyl]-phenyl}-[1,2,4]triazolo[1,5-a]pyridin-2-yl)-amide]
< 100 nM	* (* 0-25)	1 to 500 nM	* (* 0-25)	< 100 nM	101 to 500 nM	N#CCc1ccccc1NCc1ccc(-c2cccc3nc(NC(=O)C4CC4)nn23)cc1 [Compound 225, Cyclopropanecarboxylic acid (5-{4-[(2-cyanomethyl-phenylamino)-methyl]-phenyl}-[1,2,4]triazolo[1,5-a]pyridin-2-yl)-amide]
	** (** 26-50)	501 to 1000 nM	**** (**** 76-100)	< 100 nM	> 1000 nM	NC(=O)c1ccc(NCc2ccc(-c3cccc4nc(NC(=O)C5CC5)nn34)cc2)cc1 [Compound 227, 4-{4-[2-(Cyclopropanecarbonyl-amino)-[1,2,4]triazolo[1,5-a]pyridin-5-yl]-benzylamino}-benzamide]
